This is an account of results in PMC10255569, “Discovery of Peptidic Ligands against the SARS-CoV-2 Spike Protein and Their Use in the Development of a Highly Sensitive Personal Use Colorimetric COVID-19 Biosensor” (ACS Sensors, 2023).

Each structure is given as a SMILES string. Entries after “also recorded” stand apart in the source; their conditions may differ. Non-standard residues stand in square brackets, D forms with d. Residues, ends and D or L forms follow the SMILES beside them. *: point of attachment. Biotin = O=C1N[C@H]2[C@H](CS[C@H]2CCCCC(=O)*)N1; Phe(3,5-F2) = N[C@@H](Cc1cc(F)cc(F)c1)C(=O)O; hCit = NC(=O)NCCCC[C@H](N)C(=O)O; Aad = N[C@@H](CCCC(=O)O)C(=O)O; Nva = CCC[C@H](N)C(=O)O; AEEA = NCCOCCOCC(=O)O

The test deals with Delta-variant SARS-CoV-2 spike protein receptor-binding domain (L452R, T478K) (Severe acute respiratory syndrome coronavirus 2, UniProt P0DTC2, L452R/T478K). The arrangement: species or system SARS-CoV-2 Delta variant.

For the compound `CCC[C@H](NC(=O)[C@H](CCCCNC(N)=O)NC(=O)[C@H](CCCNC(=N)N)NC(=O)[C@H](Cc1ccc(OC)cc1)NC(=O)[C@H](N)Cc1c[nH]cn1)C(=O)N[C@@H](CCCNC(=N)N)C(=O)N[C@@H](Cc1cc(F)cc(F)c1)C(=O)N[C@@H](Cc1ccccc1)C(=O)N[C@@H](CCCC(=O)O)C(=O)NCCOCCOCC(=O)NCCOCCOCC(=O)N[C@@H](CCCCNC(=O)CCCC[C@@H]1SC[C@@H]2NC(=O)N[C@@H]21)C(N)=O` [L10-2] (H-[dH]Y(Me)R[hCit][Nva]R[Phe(3,5-F2)]F[Aad][AEEA][AEEA]K(Biotin)-NH2), the RMax is given as 0.11 ± 0.004 and the “binding to the Delta variant of spike protein RBD (in words)” value is “able to bind to the Delta variant of spike protein RBD with similar affinity; also recorded: can bind to S-protein from the SARS-CoV-2 Delta variant”.
